Results as given in patent US9487489B2, “Halogen-substituted pyrazole derivatives as pest-control agents” (BAYER CROPSCIENCE AKTIENGESELLSCHAFT, priority 2013, dated 2016).
Where “and” joins values, the source holds several entries; their conditions need not be identical. Identical values can stand only once.

Tests used:
[1] = system: larvae of the mustard beetle (Phaedon cochleariae); experiment: Phaedon cochleariae spray test (PHAECO); type: in vivo; settings: Chinese cabbage leaf discs, after 7 days
Outline: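 Compound dissolved in acetone/dimethylformamide with alkylaryl polyglycol ether emulsifier, made up in water containing 1000 ppm emulsifier, then diluted to test concentrations and sprayed against mustard beetle larvae. Efficacy (% larvae killed) scored after 7 days.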

[2] = system: Tick nymphs (Amblyomma hebraeum); experiment: Amblyomma hebraeum test (AMBYHE), tick nymphs immersed; type: in vivo; settings: application rate 100 ppm; immersed one minute; after 42 days
Method: A. Amblyomma hebaraeum Test (AMBYHE)
Solvent: dimethyl sulphoxide
To produce a suitable preparation of active compound, 10 mg of active compound are mixed with 0.5 ml of dimethyl sulfoxide, and the concentrate is diluted with water to the desired concentration.
Tick nymphs (Amblyomma hebraeum) are placed into perforated plastic beakers and immersed in the desired concentration for one minute. The ticks are transferred on filter paper into a Petri dish and stored in a climate-controlled cabinet.
After 42 days, the kill in % is determined. 100% means that all of the ticks have been killed; 0% means that none of the ticks have been killed.

[3] = system: adult dog ticks (Rhipicephalus sanguineus); experiment: Rhipicephalus sanguineus in vitro contact test with adult brown dog ticks (T2); settings: after 48 h
Outline: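 Acetone solutions coated onto test tube walls and floor, giving 5 μg/cm^2 at 900 ppm. Five to ten adult ticks held per tube in the dark at room temperature for 48 h, then heated at 45-50° C for up to 5 min; efficacy is the percentage of dead or moribund ticks unable to climb away.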

[4] = system: L1 larvae of the Australian sheep blowfly (Lucilia cuprina); experiment: Lucilia cuprina test (LUCICU); type: in vivo; settings: application rate 100 ppm; after 2 days
Outline: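 About 20 L1 larvae placed in a vessel with minced horsemeat plus compound (DMSO concentrate diluted with water to the desired concentration). Kill in % scored after 2 days, 100% meaning all larvae dead.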

[5] = system: adult cat fleas (Ctenocephalides felis); experiment: Ctenocephalides felis oral test (CTECFE); type: in vivo; settings: application rate 100 ppm in citrated cattle blood; after 2 days
Outline: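 About 20 unfed adult cat fleas fed through parafilm membrane on citrated cattle blood containing compound (DMSO stock diluted in blood to test concentration). Kill % scored after 2 days (100% = all fleas dead).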

[6] = system: engorged adult female cattle ticks (Boophilus microplus); experiment: Boophilus microplus injection test (BOOPMI Inj); type: in vivo; settings: application rate 20 μg/animal; injection into abdomen; assessed after 7 days
Outline: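 DMSO solution of compound (1 μl) injected into the abdomen of 5 engorged adult female ticks, which are then held in a climate-controlled room. After 7 days, efficacy is scored from laying of fertile eggs, with unclear eggs kept until larval hatch (~42 days); 100% means no fertile eggs, 0% all fertile.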

[7] = system: green peach aphid (Myzus persicae); experiment: Myzus persicae spray test (MYZUPE); type: in vivo; settings: Chinese cabbage leaf discs, after 6 days
Outline: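 Chinese cabbage leaf discs infested with all aphid stages sprayed with compound in acetone/DMF with alkylaryl polyglycol ether emulsifier in water. Efficacy (% aphids killed; 100% all dead, 0% none) scored after 6 days.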

[8] = system: bont tick nymphs (Amblyomma hebraeum); settings: after 48 h

Cn1nc(C(F)(F)C(F)(F)F)c(C(F)(F)F)c1-n1cc(-c2cc(F)c(Cl)c(C(=O)NC3CC3)c2)cn1 [Ic-24]
90%: efficacy in % ([7]; application rate 500 g/ha)
100%: efficacy in % ([1]; application rate 500 g/ha) | efficacy (kill in %) [2] | efficacy (dead or moribund ticks) ([3]; application rate 1 μg/cm^2) | efficacy (dead or moribund ticks) ([3]; application rate 5 μg/cm^2) | efficacy (kill in %) [4] | efficacy (kill in %) [5] | efficacy (laying of fertile eggs) [6]

Cn1nc(C(F)(F)C(F)(F)F)c(C(F)(F)F)c1-n1cc(-c2cc(F)c(Cl)c(C(=O)NC3(C#N)CC3)c2)cn1 [Ic-27]
100%: efficacy in % ([1]; application rate 500 g/ha) | efficacy (kill in %) [2] | efficacy (dead or moribund ticks) ([3]; application rate 1 μg/cm^2) | efficacy (dead or moribund ticks) ([3]; application rate 5 μg/cm^2) | efficacy (kill in %) [4] | efficacy (kill in %) [5] | efficacy (laying of fertile eggs) [6]
90%: efficacy in % ([7]; application rate 500 g/ha)

Cn1nc(C(F)(F)C(F)(F)F)c(C(F)(F)F)c1-n1cc(-c2ccc(Cl)c(C(=O)NCC(F)F)c2)cn1 [Ic-78]
90%: efficacy in % ([7]; application rate 100 g/ha)
100%: efficacy in % ([1]; application rate 100 g/ha) | efficacy (dead or moribund ticks) ([3]; application rate 1 μg/cm^2) | efficacy (dead or moribund ticks) ([3]; application rate 5 μg/cm^2) | efficacy (kill in %) [4] | efficacy (kill in %) [5] | efficacy (laying of fertile eggs) [6]

Cc1ncc(-c2cnn(-c3c(C(F)(F)F)c(C(F)(F)C(F)(F)F)nn3C)c2)cc1C(=O)NC1CC1 [Ic-84]
100%: efficacy in % ([1]; application rate 500 g/ha) | efficacy (kill in %) [2] | efficacy (dead or moribund ticks) ([3]; application rate 1 μg/cm^2) | efficacy (dead or moribund ticks) ([3]; application rate 5 μg/cm^2) | efficacy (kill in %) [4] | efficacy (kill in %) [5] | efficacy (dead or moribund ticks) [8] | efficacy (laying of fertile eggs) [6] | efficacy in % ([7]; application rate 500 g/ha)

Cn1nc(C(F)(F)C(F)(F)F)c(C(F)(F)F)c1-n1cnc(-c2ccc(Cl)c(C(=O)NC3CC3)c2)c1 [Ib-3]
100%: efficacy in % ([1]; application rate 100 g/ha) | efficacy (kill in %) [2] | efficacy (dead or moribund ticks) ([3]; application rate 1 μg/cm^2) | efficacy (kill in %) [4] | efficacy (kill in %) [5] | efficacy (laying of fertile eggs) [6]
100% and 80%: efficacy (dead or moribund ticks) [8]
80%: efficacy (dead or moribund ticks) ([3]; application rate 5 μg/cm^2)

Cn1nc(C(F)(F)C(F)(F)F)c(C(F)(F)F)c1-n1cc(-c2ccc(F)c(C(=O)NC3(C#N)CC3)c2)cn1 [Ic-36]
100%: efficacy in % ([1]; application rate 100 g/ha) | efficacy (kill in %) [2] | efficacy (dead or moribund ticks) ([3]; application rate 1 μg/cm^2) | efficacy (dead or moribund ticks) ([3]; application rate 5 μg/cm^2) | efficacy (kill in %) [4] | efficacy (kill in %) [5] | efficacy (laying of fertile eggs) [6]
90%: efficacy in % ([7]; application rate 100 g/ha)

Cn1nc(C(F)(F)C(F)(F)F)c(C(F)(F)F)c1-n1cc(-c2ccc([N+](=O)[O-])c(C(=O)NC3CC3)c2)cn1 [Ic-66]
100%: efficacy in % ([1]; application rate 100 g/ha) | efficacy (dead or moribund ticks) ([3]; application rate 1 μg/cm^2) | efficacy (dead or moribund ticks) ([3]; application rate 5 μg/cm^2) | efficacy (kill in %) [4] | efficacy (kill in %) [5] | efficacy (laying of fertile eggs) [6]
90%: efficacy in % ([7]; application rate 100 g/ha)

Cn1nc(C(F)(F)C(F)(F)F)c(C(F)(F)F)c1-n1ccc(-c2ccc(Cl)c(C(=O)NC3(C#N)CC3)c2)c1 [Ia-1]
100%: efficacy in % ([1]; application rate 100 g/ha) | efficacy (kill in %) [2] | efficacy (dead or moribund ticks) ([3]; application rate 1 μg/cm^2) | efficacy (dead or moribund ticks) ([3]; application rate 5 μg/cm^2) | efficacy (kill in %) [4] | efficacy (kill in %) [5] | efficacy (dead or moribund ticks) [8] | efficacy (laying of fertile eggs) [6]

Cn1nc(C(F)(F)C(F)(F)F)c(C(F)(F)F)c1-n1cc(-c2ccc(Cl)c(C(=O)NC3(C#N)CC3)c2)cn1 [Ic-2]
100%: efficacy in % ([1]; application rate 100 g/ha) | efficacy (kill in %) [2] | efficacy (dead or moribund ticks) ([3]; application rate 1 μg/cm^2) | efficacy (dead or moribund ticks) ([3]; application rate 5 μg/cm^2) | efficacy (kill in %) [4] | efficacy (kill in %) [5] | efficacy (dead or moribund ticks) [8] | efficacy (laying of fertile eggs) [6] | efficacy in % ([7]; application rate 100 g/ha)
